The source of these data is patent US20120122981A1, “Biomarkers Related to Insulin Resistance and Methods using the Same” (priority 2009, published 2012).

The conditions of assay [1]: pre-diabetic patients, DPP; cited from earlier work.
A short description of assay [2]: Predicted and actual Rd before and after treatment with the insulin sensitizer muraglitozar. The assay is classed as in vivo, human. The following applies: 16 subjects, pre- vs post-treatment, plasma biomarkers 1-25. How it is done:
C-Mur1, baseline prior to muraglitazar treatment; D-Mur2, following treatment with muraglitazar, a peroxisome proliferator-activated receptor agonist and an insulin sensitizer drug. […] Biomarkers 1-25 listed in Table 4 were measured in plasma samples collected from 16 subjects that were taking the insulin sensitizer muraglitozar. The samples were collected pre-(C-Mur—1) and post-treatment (D-Mur—2) with muraglitozar.

For `CN(C)C(=N)N=C(N)N` [metformin], the “reduction of the rate of progression to diabetes” value in assay [1] was 38%.

With `COc1ccc(OC(=O)N(CC(=O)O)Cc2ccc(OCCc3nc(-c4ccccc4)oc3C)cc2)cc1` [muraglitozar], the “change in predicted Rd with treatment, in agreement with actual Rd by HI clamp” value in assay [2] was “increased”.
